Measured values: publication PMC9411606, “Control cell migration by engineering integrin ligand assembly” (Nature Communications, 2022)

Key:
HuH-7 cells [1] = experiment: MTT assay, HuH-7 cell viability; type: cell-based, human; conditions: HuH-7, 10-200 µM, 24, 48, 72 hr
Method: Huh-7 cells were seeded in 96-well plates at a density of 5 × 10^3 cells/ well. The cells were allowed to adhere by incubating at 37 °C with 5% CO2 for 12 hr. 100 μL of Cultured medium containing 10% FBS and the desired concentration of peptide replaced to each well and the cells were then incubated with the peptide solution for another 24, 48, or 72 hr. After the desired time of incubation, 10 μL of MTT (12 mM, Invitrogen) solution at a concentration of 5 mg/mL was added to each well and incubated at 37 °C for another 4 hr. The reduction reaction was terminated by adding 100 μL of 10% of SDS solution (in Milli-Q) and incubated for 12 hr to dissolve the formazan crystals formed in the cells. A Nivo multimode plate reader (PerkinElmer) was used to measure the optical density at the 570 nm wavelength of each well. All experiments were conducted in triplicate, and the results were calculated as mean ± standard deviation and presented as cell viability.

[2] = FTIR microscopy of peptide assemblies; type: physicochemical; conditions: freeze-dried on CaF2, aqueous assembly
Source text: To prepare FTIR samples, an aliquot of the peptide solution was dropped on a TS CaF2 window (5 mm diameter) (Edmund Optics, Japan) and freeze-dried using a lyophilizer (Freeze Dryer, Labconco). The CaF2 Window with assembled nanofilaments was mounted for FTIR microscopic analysis. FTIR microscopic analysis of a plain CaF2 Window served as the reference. An FTIR microscope (Nicolet iN10, Thermo Fisher Scientific) equipped with an MCT detector was used for collecting IR spectra. Spectra ranging from 4000 to 650 cm^−1 were obtained in transmission mode, aperture of 50 μm, with the resolution of 2 cm^−1. Each spectrum was derived from an average of 128 scans for each sample.

HuH-7 cells [3] = experiment: Morphodynamics analysis (edge velocity); type: cell-based, human; conditions: for Retraction velocity / Protrusion velocity: median
Method: The whole-cell morphodynamics maps were generated using the open-source ImageJ plugin “ADAPT”[46]. The analyses were done on the maximum intensity projection of 5.5-µm stack images of mRuby-Lifeact-7 transfected HuH-7 cells pretreated with peptides for 12 hr. A spinning-disk confocal (Olympus SD-OSR) equipped with the camera Prime BSI sCMOS camera and a 100×/1.35 Silicon UPlanSApo objective was used to obtain the images every 2 min. All velocity values are directly measured using the plugin and plotted using GraphPad Prism. Briefly, the fluorescent images were Gaussian filtered to suppress noise and then a gray-level threshold was applied to create a binary image. The cell boundary was taken as pixels bordering segmented regions and the resulting segmentation is used as the seed for the region-growing algorithm in the next frame. […] The change in gray level was used to calculate the membrane velocity at each point and for a better visual representation, the resulting velocity map images (around 10000 × 100 pixels) were stretched to optimize visualization. […]

[4] = tested on: cells expressing integrin α3β1; experiment: Cell adhesion assay, cells expressing integrin α3β1; type: cell-based, human; conditions: coated with 100 µM, 1 h at 37 °C, n = 30
Method: The 96-well microplates wells were coated with peptide assemblies (the concentration of FFFIKLLI was kept at 100 μM constantly) for 12 hr at 37 °C before blocked with the Blocking Buffer (2% BSA, 1 mM CaCI2 and 1 mM MnCI2 in PBS) for 1 hr at 37 °C. Cells were collected from culture dishes and suspended in the Blocking Buffer containing anti-laminin-5 (P3H9-2, MAB1947, Chemicon, 5 μg/ml), anti-fibronectin (IST-9, ab6328, Abcam, 20 μg/ml) or IgG isotype control (20 μg/ml, Abcam) before immediately seeded to the coated well (20,000 cells/well) and allowed to incubate at 37 °C for 1 h. The wells were washed for three times with the Blocking Buffer and the phase-contrast images were captured by IncucyteS3 (Essen Bioscience) with a 10× objective.

[5] = tested on: Phospho-Myosin Light Chain 2 (Thr18/Ser19) (pMLC) in HuH-7 cells; experiment: Western blotting pMLC; type: cell-based, human; conditions: relative to Ctrl = 1, 12 hr, representative blot
Method: Protein lysates were prepared in ice-cold RIPA lysis, and extraction buffer (Thermo Scientific) supplemented with 1% Halt Protease Inhibitor (Thermo Scientific) and 1% Halt Phosphatase inhibitor (Thermo Scientific). Cells were scraped off from the culture surface using a cold plastic cell scraper, and the cell suspension was then gently transferred into a pre-cooled microcentrifuge tube and maintained on ice for 30 min with constant agitation before centrifuged at 21000 × g for 20 min. The supernatant was then transferred to a new tube, and the protein concentration of the supernatant was quantified according to the Pierce™ BCA Protein Assay Kit (Thermo Scientific). The rest of the supernatant was mixed with 4x laemmli sample buffer (Bio-Rad) in a 1:3 ratio and boiled at 100 °C for 10 min. Lysates can be aliquoted and stored at −80 °C freezer. When running the gel, 30 μg of protein was loaded into each well of the SDS-PAGE gels, along with a molecular weight marker (Bio-Rad). The gel was run for 2 hr at constantly 100 V to separate the proteins based on the molecular weight. The proteins were then transferred from the SDS-gel to a PVDF membrane (Bio-Rad) using a Transfer-blot turbo system (Bio-Rad). […] Protein bands were quantified by measuring peak areas using ImageJ. […]

[6] = entire periphery, HuH-7, pretreated 12 hr, violin plot
[7] = vin258-transfected HuH-7, 12 hr, n = 10 cells

With “FFFIKLLI [assembling ligand: FFF coupled to the N-terminus of IKLLI; self-assembles into nanofilaments]” the cytotoxicity (HuH-7 cells [1]) was “without inducing cytotoxicity”, the “hydrogen bonding by FTIR” value [2] was “NH-N” and the “trailing edge retraction and leading-edge protrusion” value (HuH-7 cells [3]; HuH-7, FFFIKLLI 100 μM, 12 h) was “restricted both trailing edge retraction and leading-edge protrusion”. It also gave a Retraction velocity (HuH-7 cells [3]; Tiam1/Rac1-activated HuH-7, 12 hr, n = 7, 8 cells) of 0.035 µm/min, a Protrusion velocity (HuH-7 cells [3]; [6]) of 0.0072 µm/min and a Retraction velocity (HuH-7 cells [3]; [6]) of 0.0076 µm/min. The Protrusion velocity (HuH-7 cells [3]; [7]) was 0.0086 µm/min, the Retraction velocity (HuH-7 cells [3]; [7]) was 0.0080 µm/min and the “adherence to FFFIKLLI-coated dishes” value [4] was “remained adhered to the substrate”. It also gave a pMLC band [5] of 0.17.
